Source: ChEMBL document CHEMBL4368868, “Selected aryl thiosemicarbazones as a new class of multi-targeted monoamine oxidase inhibitors” (Medchemcomm, 2018)

Key:
[1] = target: T1, Amine oxidase [flavin-containing] A (Homo sapiens, UniProt P21397)
T1 sequence (P21397 whole entry): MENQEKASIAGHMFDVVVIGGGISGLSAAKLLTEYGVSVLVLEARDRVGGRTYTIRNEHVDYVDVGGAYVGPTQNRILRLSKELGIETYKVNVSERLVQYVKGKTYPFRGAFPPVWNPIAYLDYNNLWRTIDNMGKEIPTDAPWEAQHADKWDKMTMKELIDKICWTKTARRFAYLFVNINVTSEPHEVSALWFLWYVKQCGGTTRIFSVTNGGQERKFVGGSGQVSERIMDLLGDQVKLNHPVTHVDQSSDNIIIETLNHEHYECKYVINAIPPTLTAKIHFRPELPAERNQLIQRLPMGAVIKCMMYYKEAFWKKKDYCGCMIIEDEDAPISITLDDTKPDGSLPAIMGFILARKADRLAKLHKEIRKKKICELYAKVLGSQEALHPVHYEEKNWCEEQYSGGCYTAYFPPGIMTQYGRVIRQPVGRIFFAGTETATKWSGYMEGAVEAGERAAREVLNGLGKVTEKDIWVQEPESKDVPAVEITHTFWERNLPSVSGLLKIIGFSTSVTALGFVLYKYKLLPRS

[2] = target: T2, Amine oxidase [flavin-containing] B (Homo sapiens, UniProt P27338); assay: Inhibition of MAOB (unknown origin) assessed as residual activity at 10 uM using benzylamine as substrate preincubated for 30 mins followed by substrate addition relative to control; settings: read-out: Activity
T2 sequence (P27338 whole entry): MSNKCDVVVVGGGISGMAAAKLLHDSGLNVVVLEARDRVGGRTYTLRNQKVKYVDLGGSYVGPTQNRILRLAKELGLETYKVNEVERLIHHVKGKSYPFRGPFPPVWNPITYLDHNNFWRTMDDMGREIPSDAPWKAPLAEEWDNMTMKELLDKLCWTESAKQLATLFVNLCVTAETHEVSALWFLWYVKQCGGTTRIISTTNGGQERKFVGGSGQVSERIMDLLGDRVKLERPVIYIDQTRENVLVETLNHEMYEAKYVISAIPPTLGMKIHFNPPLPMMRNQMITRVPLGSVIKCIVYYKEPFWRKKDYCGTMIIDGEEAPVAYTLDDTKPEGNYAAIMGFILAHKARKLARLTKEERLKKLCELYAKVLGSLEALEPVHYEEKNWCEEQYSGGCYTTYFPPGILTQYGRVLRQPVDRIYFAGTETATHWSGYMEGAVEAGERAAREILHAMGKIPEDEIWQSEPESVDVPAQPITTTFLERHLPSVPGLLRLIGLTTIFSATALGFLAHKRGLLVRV

[3] = target: T2, Amine oxidase [flavin-containing] B
Acetylcholinesterase = Acetylcholinesterase (Electrophorus electricus, UniProt O42275)
[4] = target: T1, Amine oxidase [flavin-containing] A; assay: Inhibition of MAOA (unknown origin) assessed as residual activity at 10 uM using kynuramine as substrate preincubated for 30 mins followed by substrate addition relative to control; settings: read-out: Activity
[5] = Permeability of the compound in PBS/EtOH at 100 ug/ml incubated for 16 hrs by PAMPA; format: ADME; settings: read-out: permeability
Homo sapiens = species: Homo sapiens; assay: Selectivity index, ratio of IC50 for MAOA (unknown origin) to IC50 for MAOB (unknown origin)
[6] = target: T1, Amine oxidase [flavin-containing] A; assay: Reversible inhibition of MAOA (unknown origin) assessed as residual enzyme activity at 2 uM using kynuramine as substrate measured after 30 mins relative to control; settings: 0.5 h, read-out: Activity
[7] = target: T1, Amine oxidase [flavin-containing] A; assay: Reversible inhibition of MAOA (unknown origin) assessed as residual enzyme activity at 2 uM using kynuramine as substrate pre-incubated for 30 mins followed by dialysis with pH 7.2 sodium phosphate buffer relative to control; settings: read-out: Activity
[8] = target: T1, Amine oxidase [flavin-containing] A; assay: Irreversible inhibition of MAOA (unknown origin) assessed as residual enzyme activity at 0.014 uM using kynuramine as substrate measured after 30 mins relative to control; settings: 0.5 h, read-out: Activity
[9] = target: T1, Amine oxidase [flavin-containing] A; assay: Irreversible inhibition of MAOA (unknown origin) assessed as residual enzyme activity at 0.014 uM using kynuramine as substrate pre-incubated for 30 mins followed by dialysis with pH 7.2 sodium phosphate buffer relative to control; settings: read-out: Activity
[10] = target: T2, Amine oxidase [flavin-containing] B; assay: Reversible inhibition of MAOB (unknown origin) assessed as residual enzyme activity at 0.54 uM using benzylamine as substrate measured after 30 mins relative to control; settings: 0.5 h, read-out: Activity
[11] = target: T2, Amine oxidase [flavin-containing] B; assay: Reversible inhibition of MAOB (unknown origin) assessed as residual enzyme activity at 0.54 uM using benzylamine as substrate pre-incubated for 30 mins followed by dialysis with pH 7.2 sodium phosphate buffer relative to control; settings: read-out: Activity
[12] = target: T2, Amine oxidase [flavin-containing] B; assay: Competitive inhibition of MAOB (unknown origin) using varying levels of benzylamine as substrate preincubated for 15 mins followed by substrate addition and measured by Lineweaver-burk plot analysis
[13] = target: T2, Amine oxidase [flavin-containing] B; assay: Reversible inhibition of MAOB (unknown origin) assessed as residual enzyme activity at 0.08 uM using benzylamine as substrate measured after 30 mins relative to control; settings: 0.5 h, read-out: Activity
[14] = target: T2, Amine oxidase [flavin-containing] B; assay: Reversible inhibition of MAOB (unknown origin) assessed as residual enzyme activity at 0.08 uM using benzylamine as substrate pre-incubated for 30 mins followed by dialysis with pH 7.2 sodium phosphate buffer relative to control; settings: read-out: Activity
[15] = target: T1, Amine oxidase [flavin-containing] A; assay: Competitive inhibition of MAOA (unknown origin) using varying levels of kynuramine as substrate preincubated for 15 mins followed by substrate addition and measured by Lineweaver-burk plot analysis
[16] = target: T1, Amine oxidase [flavin-containing] A; assay: Reversible inhibition of MAOA (unknown origin) assessed as residual enzyme activity at 3.6 uM using kynuramine as substrate measured after 30 mins relative to control; settings: 0.5 h, read-out: Activity
[17] = target: T1, Amine oxidase [flavin-containing] A; assay: Reversible inhibition of MAOA (unknown origin) assessed as residual enzyme activity at 3.6 uM using kynuramine as substrate pre-incubated for 30 mins followed by dialysis with pH 7.2 sodium phosphate buffer relative to control; settings: read-out: Activity
[18] = target: T2, Amine oxidase [flavin-containing] B; settings: 0.5 h

Sequence of Acetylcholinesterase (O42275 whole entry): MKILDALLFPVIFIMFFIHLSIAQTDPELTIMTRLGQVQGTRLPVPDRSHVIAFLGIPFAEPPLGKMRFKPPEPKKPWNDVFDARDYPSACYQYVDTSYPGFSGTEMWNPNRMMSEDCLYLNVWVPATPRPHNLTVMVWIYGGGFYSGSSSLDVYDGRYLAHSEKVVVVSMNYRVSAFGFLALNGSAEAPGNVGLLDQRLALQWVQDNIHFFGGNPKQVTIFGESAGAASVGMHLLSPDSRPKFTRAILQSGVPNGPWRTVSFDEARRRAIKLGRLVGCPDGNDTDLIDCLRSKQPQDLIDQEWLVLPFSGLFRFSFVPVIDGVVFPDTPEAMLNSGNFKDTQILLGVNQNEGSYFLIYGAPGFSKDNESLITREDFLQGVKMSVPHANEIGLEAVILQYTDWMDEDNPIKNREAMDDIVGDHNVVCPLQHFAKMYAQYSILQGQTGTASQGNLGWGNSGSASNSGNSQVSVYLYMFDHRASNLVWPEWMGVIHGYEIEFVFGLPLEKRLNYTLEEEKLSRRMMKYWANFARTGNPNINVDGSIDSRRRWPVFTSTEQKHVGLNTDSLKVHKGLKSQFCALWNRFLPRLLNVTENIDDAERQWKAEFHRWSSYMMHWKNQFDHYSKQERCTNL

Row | Structure (SMILES) | IC50 [1] [µM] | activity at 10 µM [2] [%] | IC50 [3] [µM] | IC50 (Acetylcholinesterase) [µM] | activity at 10 µM [4] [%] | Papp at 16 h, 100 ug/ml [5] [×10⁻⁶ cm/s] | other results
1 | NC(=S)N/N=C/c1ccccc1 [PHENYLTHIOSEMICARBAZONE] | > 10 | 75.5 | > 10 | > 40 | 83.5 |  | 
2 | NC(=S)N/N=C/c1ccc(Br)cc1 | > 10 | 82.5 | > 10 | 31.1 | 59.5 |  | 
3 | COc1ccc(/C=N/NC(N)=S)cc1 | 4.99 | 82.1 | > 10 | 36.1 | 37.5 | 11.2 | Ratio IC50 (Homo sapiens): < 0.5
4 | Cc1ccc(/C=N/NC(N)=S)cc1 | > 10 | 91.5 | > 10 | > 40 | 56.5 |  | 
5 | CCc1ccc(/C=N/NC(N)=S)cc1 | 5.98 | 86.2 | > 10 | 26.7 | 36 | 9.44 | Ratio IC50 (Homo sapiens): < 0.6
6 | NC(=S)N/N=C/c1ccc(Cl)cc1 | > 10 | 60.5 | > 10 | > 40 | 76 |  | 
7 | NC(=S)N/N=C/c1ccccc1F | > 10 | 33.5 | 7.61 | 30.8 | 77.5 | 10.3 | Ratio IC50 (Homo sapiens): > 1.31
8 | Cc1cccc(N2CC(CO)OC2=O)c1 (stereo not given) [TOLOXATONE] |  |  |  |  |  |  | activity at 2 µM [6]: 30.7%; activity at 2 µM [7]: 74%
9 | NC(=S)N/N=C/c1ccc(O)cc1 | > 10 | 87.5 | > 10 | > 40 | 66 |  | 
10 | C#CCN(C)CCCOc1ccc(Cl)cc1Cl [CLORGILINE] |  |  |  |  |  |  | activity at 0.014 µM [8]: 21.4%; activity at 0.014 µM [9]: 19.8%
11 | N/C(S)=N/N=C/c1ccc([N+](=O)[O-])cc1 | > 10 | 7.5 | 1.43 | 15.6 | 75.5 | 12.8 | Ratio IC50 (Homo sapiens): > 6.99
12 | NC(=S)N/N=C/c1cccc(F)c1 | > 10 | 3 | 0.27 | 26.6 | 75.5 | 13.1 | activity at 0.54 µM [10]: 27.4%; activity at 0.54 µM [11]: 81%; Ki [12]: 0.12 µM; Ratio IC50 (Homo sapiens): > 37
13 | NCCNC(=O)c1ccc(Cl)cn1 [LAZABEMIDE] | > 80 |  |  |  |  |  | activity at 0.08 µM [13]: 29.5%; activity at 0.08 µM [14]: 86.9%
14 | CN(C)c1ccc(/C=N/NC(N)=S)cc1 | 1.82 | 82.3 | > 10 | 35.3 | 16.5 | 10.1 | Ki [15]: 0.97 µM; activity at 3.6 µM [16]: 34.7%; activity at 3.6 µM [17]: 70.3%
15 | NC(=S)N/N=C/c1ccc(F)cc1 | > 10 | 86.5 | > 10 | 37.9 | 84.5 |  | 
16 | N=C(S)N/N=C/c1ccc(C(F)(F)F)cc1 | > 10 | 77.5 | > 10 | 36.2 | 92.5 |  | 
17 | C#CCN(C)Cc1ccccc1 [PARGYLINE] |  |  |  |  |  |  | activity at 0.2 µM [18]: 27.9%
